In the supplement of paper PMC10307832:

Key:
Experiment in all cases: relative viability (nuclei count vs DMSO), 5 days (fraction); higher = more cells survive
LXF-289 = test system: LXF-289
Summary of the method: (§1)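 Cells from lung cancer lines were seeded into 1536-well plates and, one day later, dosed by pin tool. Treatments were either a single drug or a fixed dose of an anchor drug with five library-drug doses (not always all listed) in √10 steps. After 5 days, nuclei were stained in a one-step fixation (final 0.05% Triton X-100, 1% formaldehyde, 1 ug/ml Hoechst) and counted on 4× images, and relative viability is the treated-to-vehicle nuclei ratio, as the median of duplicate plates.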

PC-3 [JPC-3] = test system: PC-3 [JPC-3]
Summary of the method: as §1

NCI-H2126 = test system: NCI-H2126
Summary of the method: as §1

LOU-NH91 = test system: LOU-NH91
Summary of the method: as §1

NCI-H358 = test system: NCI-H358
Summary of the method: as §1

NCI-H1734 = test system: NCI-H1734
Summary of the method: as §1

HOP-62 = test system: HOP-62
Summary of the method: as §1

LC-2-ad = test system: LC-2-ad
Summary of the method: as §1

NCI-H1975 = test system: NCI-H1975
Summary of the method: as §1

NCI-H1792 = test system: NCI-H1792
Summary of the method: as §1

NCI-H460 = test system: NCI-H460
Summary of the method: as §1

NCI-H647 = test system: NCI-H647
Summary of the method: as §1

SW 1573 = test system: SW 1573
Summary of the method: as §1

HCC-15 = test system: HCC-15
Summary of the method: as §1

NCI-H2347 = test system: NCI-H2347
Summary of the method: as §1

HCC-78 = test system: HCC-78
Summary of the method: as §1

NCI-H2228 = test system: NCI-H2228
Summary of the method: as §1

A-427 = test system: A-427
Summary of the method: as §1

NCI-H2342 = test system: NCI-H2342
Summary of the method: as §1

SK-LU-1 = test system: SK-LU-1
Summary of the method: as §1

NCI-H1755 = test system: NCI-H1755
Summary of the method: as §1

NCI-H1915 = test system: NCI-H1915
Summary of the method: as §1

RERF-LC-KJ = test system: RERF-LC-KJ
Summary of the method: as §1

## NC(=O)Nc1cc(-c2cccc(F)c2)sc1C(=O)N[C@H]1CCCNC1 [AZD7762] + COc1cccc2cc(-c3nc([C@H]4CC[C@H](C(=O)O)CC4)n4ncnc(N)c34)[nH]c12 [OSI-027] (partner 0.5 µM)
LXF-289; first compound 0.01 µM
  relative viability: 0.61
LXF-289; first compound 0.03162 µM
  relative viability: 0.835
LXF-289; first compound 0.1 µM
  relative viability: 0.886
LXF-289; first compound 0.3162 µM
  relative viability: 0.864
LXF-289; first compound 1 µM
  relative viability: 0.971
PC-3 [JPC-3]; first compound 0.01 µM
  relative viability: 0.714
PC-3 [JPC-3]; first compound 0.03162 µM
  relative viability: 0.832
PC-3 [JPC-3]; first compound 0.1 µM
  relative viability: 0.858
PC-3 [JPC-3]; first compound 0.3162 µM
  relative viability: 0.751
PC-3 [JPC-3]; first compound 1 µM
  relative viability: 0.684
NCI-H2126; first compound 0.01 µM
  relative viability: 0.735
NCI-H2126; first compound 0.03162 µM
  relative viability: 0.772
NCI-H2126; first compound 0.1 µM
  relative viability: 0.783
NCI-H2126; first compound 0.3162 µM
  relative viability: 0.871
NCI-H2126; first compound 1 µM
  relative viability: 0.807
LOU-NH91; first compound 0.01 µM
  relative viability: 0.735
LOU-NH91; first compound 0.03162 µM
  relative viability: 0.749
LOU-NH91; first compound 0.1 µM
  relative viability: 0.692
LOU-NH91; first compound 0.3162 µM
  relative viability: 0.638
LOU-NH91; first compound 1 µM
  relative viability: 0.554
NCI-H358; first compound 0.01 µM
  relative viability: 0.956
NCI-H358; first compound 0.03162 µM
  relative viability: 0.838
NCI-H358; first compound 0.1 µM
  relative viability: 0.839
NCI-H358; first compound 0.3162 µM
  relative viability: 0.75
NCI-H358; first compound 1 µM
  relative viability: 0.461
NCI-H1734; first compound 0.01 µM
  relative viability: 0.638
NCI-H1734; first compound 0.03162 µM
  relative viability: 0.704
NCI-H1734; first compound 0.1 µM
  relative viability: 0.642
NCI-H1734; first compound 0.3162 µM
  relative viability: 0.374
NCI-H1734; first compound 1 µM
  relative viability: 0.238
HOP-62; first compound 0.01 µM
  relative viability: 0.759
HOP-62; first compound 0.03162 µM
  relative viability: 0.89
HOP-62; first compound 0.1 µM
  relative viability: 0.743
HOP-62; first compound 0.3162 µM
  relative viability: 0.71
HOP-62; first compound 1 µM
  relative viability: 0.552
LC-2-ad; first compound 0.01 µM
  relative viability: 0.911
LC-2-ad; first compound 0.03162 µM
  relative viability: 1
LC-2-ad; first compound 0.1 µM
  relative viability: 0.816
LC-2-ad; first compound 0.3162 µM
  relative viability: 0.8
LC-2-ad; first compound 1 µM
  relative viability: 0.543
NCI-H1975; first compound 0.01 µM
  relative viability: 0.687
NCI-H1975; first compound 0.03162 µM
  relative viability: 0.73
NCI-H1975; first compound 0.1 µM
  relative viability: 0.637
NCI-H1975; first compound 0.3162 µM
  relative viability: 0.615
NCI-H1975; first compound 1 µM
  relative viability: 0.397
NCI-H1792; first compound 0.01 µM
  relative viability: 0.832
NCI-H1792; first compound 0.03162 µM
  relative viability: 0.848
NCI-H1792; first compound 0.1 µM
  relative viability: 0.811
NCI-H1792; first compound 0.3162 µM
  relative viability: 0.867
NCI-H1792; first compound 1 µM
  relative viability: 0.965
NCI-H460; first compound 0.01 µM
  relative viability: 0.861
NCI-H460; first compound 0.03162 µM
  relative viability: 0.751
NCI-H460; first compound 0.1 µM
  relative viability: 0.649
NCI-H460; first compound 0.3162 µM
  relative viability: 0.463
NCI-H460; first compound 1 µM
  relative viability: 0.0347
NCI-H647; first compound 0.01 µM
  relative viability: 0.656
NCI-H647; first compound 0.03162 µM
  relative viability: 0.55
NCI-H647; first compound 0.1 µM
  relative viability: 0.714
NCI-H647; first compound 0.3162 µM
  relative viability: 0.6
NCI-H647; first compound 1 µM
  relative viability: 0.172
SW 1573; first compound 0.01 µM
  relative viability: 0.69
SW 1573; first compound 0.03162 µM
  relative viability: 0.65
SW 1573; first compound 0.1 µM
  relative viability: 0.742
SW 1573; first compound 0.3162 µM
  relative viability: 0.422
SW 1573; first compound 1 µM
  relative viability: 0.176
HCC-15; first compound 0.01 µM
  relative viability: 0.664
HCC-15; first compound 0.03162 µM
  relative viability: 0.702
HCC-15; first compound 0.1 µM
  relative viability: 0.72
HCC-15; first compound 0.3162 µM
  relative viability: 0.766
HCC-15; first compound 1 µM
  relative viability: 0.64
NCI-H2347; first compound 0.01 µM
  relative viability: 0.433
NCI-H2347; first compound 0.03162 µM
  relative viability: 0.529
NCI-H2347; first compound 0.1 µM
  relative viability: 0.412
NCI-H2347; first compound 0.3162 µM
  relative viability: 0.395
NCI-H2347; first compound 1 µM
  relative viability: 0.356
HCC-78; first compound 0.01 µM
  relative viability: 0.43
HCC-78; first compound 0.03162 µM
  relative viability: 0.452
HCC-78; first compound 0.1 µM
  relative viability: 0.453
HCC-78; first compound 0.3162 µM
  relative viability: 0.357
HCC-78; first compound 1 µM
  relative viability: 0.346
NCI-H2228; first compound 0.01 µM
  relative viability: 0.513
NCI-H2228; first compound 0.03162 µM
  relative viability: 0.847
NCI-H2228; first compound 0.1 µM
  relative viability: 0.492
NCI-H2228; first compound 0.3162 µM
  relative viability: 0.302
NCI-H2228; first compound 1 µM
  relative viability: 0.152
A-427; first compound 0.01 µM
  relative viability: 0.484
A-427; first compound 0.03162 µM
  relative viability: 0.498
A-427; first compound 0.1 µM
  relative viability: 0.343
A-427; first compound 0.3162 µM
  relative viability: 0.353
A-427; first compound 1 µM
  relative viability: 0.224
NCI-H2342; first compound 0.01 µM
  relative viability: 0.612
NCI-H2342; first compound 0.03162 µM
  relative viability: 0.714
NCI-H2342; first compound 0.1 µM
  relative viability: 0.611
NCI-H2342; first compound 0.3162 µM
  relative viability: 0.586
NCI-H2342; first compound 1 µM
  relative viability: 0.588
SK-LU-1; first compound 0.01 µM
  relative viability: 0.35
SK-LU-1; first compound 0.03162 µM
  relative viability: 0.384
SK-LU-1; first compound 0.1 µM
  relative viability: 0.203
SK-LU-1; first compound 0.3162 µM
  relative viability: 0.136
SK-LU-1; first compound 1 µM
  relative viability: 0.157
NCI-H1755; first compound 0.01 µM
  relative viability: 0.826
NCI-H1755; first compound 0.03162 µM
  relative viability: 0.845
NCI-H1755; first compound 0.1 µM
  relative viability: 0.722
NCI-H1755; first compound 0.3162 µM
  relative viability: 0.712
NCI-H1755; first compound 1 µM
  relative viability: 0.44
NCI-H1915; first compound 0.01 µM
  relative viability: 0.629
NCI-H1915; first compound 0.03162 µM
  relative viability: 0.635
NCI-H1915; first compound 0.1 µM
  relative viability: 0.64
NCI-H1915; first compound 0.3162 µM
  relative viability: 0.638
NCI-H1915; first compound 1 µM
  relative viability: 0.571
RERF-LC-KJ; first compound 0.01 µM
  relative viability: 0.587
RERF-LC-KJ; first compound 0.03162 µM
  relative viability: 0.668
RERF-LC-KJ; first compound 0.1 µM
  relative viability: 0.77
RERF-LC-KJ; first compound 0.3162 µM
  relative viability: 0.666
RERF-LC-KJ; first compound 1 µM
  relative viability: 0.499
